Data reported in PMC4374931 (PLoS ONE, 2015).
Like-named read-outs stand apart in the source and are kept apart here.

Assays:
androgen receptor [1] = target: androgen receptor; design: method as in Sedlak et al.; conditions: published data; ref Sedlak et al.; cited from earlier work
human androgen receptor [2] = target: T1, human androgen receptor (Homo sapiens, UniProt P10275); test: Gene reporter assay in AIZ-AR cells, antagonist mode with DHT (100 nM); assay type: cell-based
Description: (§1) AIZ-AR cells were seeded in 96-well plates at density 5x10^4 cells per well. […] After the treatments, cells were lysed and luciferase activity was measured in 96-well plate format using Tecan Infinite M2000 plate luminometer.
(§2) Dose-response analyses assays were performed in two different experimental layouts. […] Where appropriate, IC50 (half maximal inhibitory concentration) values were calculated.

human androgen receptor [3] = target: T1, human androgen receptor; test: Gene reporter assay in AIZ-AR cells, agonist mode (luciferase); assay type: cell-based
Description: as §1, §2

firefly luciferase = test: Inhibition of firefly luciferase in cell lysates; assay type: biochemical; conditions: compounds 10 μM added to lysates of cells treated with 100 nM DHT; data not shown
Description: AIZ-AR cells were treated with 100 nM DHT for 24 hours. Cell lysates containing firefly luciferase, having a catalytic activity corresponding to model ligand-treated cells, were isolated. Tested compounds (10 μM) were added to cell lysates and luciferase activity was measured.

in vitro = assay type: cell-based; conditions: human
Description: AIZ-AR cells were seeded in 96-well plates at density 5x10^4 cells per well. […] Following the incubation, MTT assay was measured spectrophotometrically at 540 nm using Tecan Infinite M2000 plate luminometer.

androgen receptor [4] = target: androgen receptor; design: method as in Wilkinson et al.; conditions: published data; ref Wilkinson et al.; cited from earlier work
androgen receptor [5] = conditions: cited from earlier work

T1 sequence (P10275 whole entry): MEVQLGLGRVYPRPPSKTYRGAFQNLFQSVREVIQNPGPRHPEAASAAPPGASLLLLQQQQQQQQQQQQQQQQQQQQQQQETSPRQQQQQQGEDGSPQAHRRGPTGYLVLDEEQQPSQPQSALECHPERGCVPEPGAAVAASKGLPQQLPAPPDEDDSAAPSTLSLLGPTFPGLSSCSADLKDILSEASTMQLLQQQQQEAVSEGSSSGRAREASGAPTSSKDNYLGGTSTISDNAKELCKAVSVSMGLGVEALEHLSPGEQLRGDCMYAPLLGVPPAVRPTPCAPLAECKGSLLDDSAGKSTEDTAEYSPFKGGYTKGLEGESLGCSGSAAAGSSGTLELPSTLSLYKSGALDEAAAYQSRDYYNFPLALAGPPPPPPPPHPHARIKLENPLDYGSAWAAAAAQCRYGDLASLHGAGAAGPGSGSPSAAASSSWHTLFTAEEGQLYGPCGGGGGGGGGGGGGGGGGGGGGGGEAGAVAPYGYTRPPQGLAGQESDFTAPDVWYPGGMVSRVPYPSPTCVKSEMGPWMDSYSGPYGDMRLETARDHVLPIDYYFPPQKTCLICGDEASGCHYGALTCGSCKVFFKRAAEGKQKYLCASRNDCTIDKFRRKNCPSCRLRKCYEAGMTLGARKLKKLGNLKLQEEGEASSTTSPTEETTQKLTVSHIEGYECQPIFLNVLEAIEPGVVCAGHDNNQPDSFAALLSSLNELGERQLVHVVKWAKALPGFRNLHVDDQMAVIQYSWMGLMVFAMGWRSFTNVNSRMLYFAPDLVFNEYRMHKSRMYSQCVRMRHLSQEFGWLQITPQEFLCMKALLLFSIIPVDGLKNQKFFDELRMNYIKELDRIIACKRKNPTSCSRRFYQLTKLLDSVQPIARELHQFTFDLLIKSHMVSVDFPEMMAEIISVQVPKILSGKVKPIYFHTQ

| SMILES | Literature Log EC50 (androgen receptor [1]) | agonist-induced luciferase activity (human androgen receptor [2]; antagonist mode, 10^-5 M, probably due to luciferase inhibition) | effect on agonist-induced luciferase activity in antagonist mode (human androgen receptor [2]; with DHT (100 nM) or testosterone (10 nM) as agonist, 24 h) | Log EC50 (human androgen receptor [3]; Clone 8, 24 h) | Log EC50 (human androgen receptor [3]; Clone 14, 24 h) | influence on firefly luciferase catalytic activity (firefly luciferase) | viability at 24 h, 0.1 nM (in vitro) [%] | viability at 24 h, 1 nM (in vitro) [%] | viability at 24 h, 10 nM (in vitro) [%] | viability at 24 h, 100 nM (in vitro) [%] | viability at 24 h, 1 μM (in vitro) [%] | viability at 24 h, 10 μM (in vitro) [%] | Literature Log EC50 (androgen receptor [4]) | Response of AR-LUX cell line (induction) (androgen receptor [5]) |
| --- | --- | --- | --- | --- | --- | --- | --- | --- | --- | --- | --- | --- | --- | --- |
| O=c1c(-c2ccc(O)cc2)coc2cc(O)cc(O)c12 [Genistein, genistein] | > -5.00 | massive drop | strongly augmented agonist-induced luciferase activity | -6.62 ± 0.42 | -6.79 ± 0.23 | significantly influenced luciferase activity | 100 | 96.5 ± 2.4 | 96.7 ± 3.3 | 103 ± 7.5 | 103 ± 7.5 | 120 ± 6.4 | > -5.00 | – |
| C[C@]1(O)CC[C@H]2[C@@H]3CCC4=CC(=O)CCC4=C3C=C[C@@]21C [R1881] | – | – | – | – | – | – | – | – | – | – | – | – | – | maximally five-fold induction |
